This is an account of results in ChEMBL document CHEMBL3638947, “TRPV1 antagonists” (2015).

Structures are written as SMILES. pIC50: −log10 of the molar value.

Chain of Transient receptor potential cation channel subfamily V member 1 (Q8NER1 whole entry): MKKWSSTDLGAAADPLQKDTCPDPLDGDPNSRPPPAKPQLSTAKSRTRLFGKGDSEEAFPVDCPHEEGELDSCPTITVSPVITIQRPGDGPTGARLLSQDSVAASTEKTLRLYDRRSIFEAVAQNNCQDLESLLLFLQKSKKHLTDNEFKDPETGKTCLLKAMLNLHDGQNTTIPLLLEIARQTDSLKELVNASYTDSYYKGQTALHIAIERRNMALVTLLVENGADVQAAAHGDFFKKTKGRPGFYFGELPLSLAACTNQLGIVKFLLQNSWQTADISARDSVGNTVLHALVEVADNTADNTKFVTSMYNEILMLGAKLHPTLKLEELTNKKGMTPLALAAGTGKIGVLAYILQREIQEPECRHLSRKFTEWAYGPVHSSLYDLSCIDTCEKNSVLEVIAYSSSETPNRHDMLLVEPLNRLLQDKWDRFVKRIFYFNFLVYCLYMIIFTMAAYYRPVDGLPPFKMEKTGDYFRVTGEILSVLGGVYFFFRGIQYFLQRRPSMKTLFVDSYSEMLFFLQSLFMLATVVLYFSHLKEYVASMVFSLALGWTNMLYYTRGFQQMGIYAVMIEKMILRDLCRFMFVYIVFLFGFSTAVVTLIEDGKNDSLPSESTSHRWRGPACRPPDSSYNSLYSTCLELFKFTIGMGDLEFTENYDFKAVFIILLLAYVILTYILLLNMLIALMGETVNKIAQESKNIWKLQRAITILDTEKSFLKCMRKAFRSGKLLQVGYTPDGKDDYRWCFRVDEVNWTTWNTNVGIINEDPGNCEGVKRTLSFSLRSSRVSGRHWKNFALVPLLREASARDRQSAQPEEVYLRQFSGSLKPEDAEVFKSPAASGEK

The assay addresses Transient receptor potential cation channel subfamily V member 1 (Homo sapiens, UniProt Q8NER1). The assay is described as follows: Activation Assay: The cDNA for human TRPV1 (hTRPV1) was isolated by reverse transcriptase-polymerase chain reaction (RT-PCR) from human small intestine poly A+ RNA supplied by Clontech (Palo Alto, Calif.) using primers designed surrounding the initiation and termination codons identical to the published sequences (Hayes et al. Pain 2000, 88, 205-215). The resulting cDNA PCR products were subcloned into pCIneo mammalian expression vector (Promega) and fully sequenced using fluorescent dye-terminator reagents (Prism, PerkinElmer Applied Biosystems Division) and a PerkinElmer Applied Biosystems Model 373 DNA sequencer or Model 310 genetic analyzer. Expression plasmids encoding the hTRPV1 cDNA were transfected into HEK293 cells using Lipofectamine. Forty-eight hours after transfection, the neomycin-resistant cells were selected with growth medium containing 800 ug/mL Geneticin (Life Technologies, formerly Gibco BRL). Surviving individual colonies were isolated and screened for TRPV1 activity. Format: cell-based.
For the compound `O=C1CCc2ccc(NC(=O)N[C@@H]3CC(CF)(CF)Oc4cc(Cl)ccc43)cc2N1`, the pIC50 was 7.46.

With `CN1C(=O)NCc2c(NC(=O)N[C@@H]3CC(C)(C)c4ccccc43)cccc21`, the pIC50 was 7.54.

For `CN1C(=O)NCc2c(NC(=O)N[C@@H]3CC(CF)(CF)Oc4c3ccc(Cl)c4F)cccc21`, the pIC50 was 7.60.

Regarding `CN1C(=O)NCc2c(NC(=O)N[C@@H]3CC(C)(C)Oc4cc(Cl)ccc43)cccc21`, the pIC50 is 7.38.

With `CN1C(=O)NCc2c(NC(=O)N[C@@H]3CC(C)(C)Oc4ccccc43)cccc21`, the pIC50 is 7.43.

With `CN1Cc2ccc(NC(=O)N[C@@H]3CC(C)(C)Oc4c(F)cccc43)cc2NC1=O`, the pIC50 is 6.09.

`Cn1c(=O)ccc2c(NC(=O)N[C@@H]3CC(C)(C)Oc4cc(F)ccc43)cccc21`: the pIC50 is 8.00.

`CN1C(=O)CCc2ccc(NC(=O)N[C@@H]3CCOc4c3cccc4C(F)(F)F)cc21`: the pIC50 is 7.03.

For `CCC1(CC)C[C@@H](NC(=O)Nc2cccc3c2CNC(=O)N3C)c2ccc(F)cc2O1`, the pIC50 is 7.62.
